Drawing on PubChem BioAssay AID179 (DTP/NCI, 2004), this text covers EC50, IC50 and outcome for 28 compounds.

In this test the test system is CEM cells HIV-1 protection, formazan growth assay. In words: NCI AIDS Antiviral Assay. The note with it: for IC50: measured here: growth of uninfected CEM cells. In outline:
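Human CEM cells, uninfected and HIV-1-infected, received five drug concentrations, and growth was read by soluble formazan assay. Compounds giving at least 50% protection were retested; reproducible 100% protection defined confirmed active.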

“And” between values parts separate entries of the source, which are not always exact repeats. Equal values may be shown once. The source made the active and inactive calls.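 How the source made its calls: active means compounds giving half or more protection of infected cells from virus-caused growth loss, again on retest; inactive means the rest.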

Take `CC(CCC[C@H](C)CO)[C@H]1[C@@H](O)C(O)C2[C@@H]3C[C@@H](O)C4(O)C[C@@H](O)CC[C@]4(C)C3CC[C@@]21C` (some centres not stated): the EC50 was > 200 µM and the IC50 worked out at 107 µM.
As for `C1=C[C@]2(CCC13OCCO3)COc1ccccc12`, the EC50 is > 200 µM and the IC50 stood at 18.6 µM.
Taken in the same sequence, the figures for `COC(=O)C1=C2Nc3ccccc3C[C@@]23CCN2CCC[C@@](C(C)OC(=O)C=C(C)C)(C1)C23` (some centres not stated) were > 200 µM and 23.4 µM.
Taken in the same sequence, the figures for `CC[P+](C)(Cc1ccccc1)c1ccccc1` (configuration not stated) were 0.0631 µM and 81.3 µM.
Taken in the same sequence, the figures for `COC(=O)c1cc(-c2c[nH]cc2C(=O)OCc2ccccc2)cn1S(=O)(=O)c1ccc(C)cc1` were > 200 µM and 17.8 µM.
Regarding `O=C1CC[C@H](O)Cc2ccc(O)c(c2)-c2cc(ccc2O)CC1O` (some centres not stated), the EC50 was > 759 µM and the 50% inhibitory concentration (IC50) turned out to be 724 µM.
For `N#CC(C#N)=c1[nH]c2cccc3c2-c2c(cccc2c3=C(C#N)C#N)[nH]1`, the outcome was inactive.
On to `CC[C@@H](C(=O)[C@@H](C)[C@@H](O)[C@H](C)CCc1ccc(C)c(O)c1C(=O)O)[C@H]1O[C@](CC)([C@H]2CC[C@](O)(CC)[C@H](C)O2)C[C@@H]1C`, for which the EC50 is 1.51 µM and the concentration for half-maximal inhibition (IC50) was found to be 1.82 µM.
Regarding `CCCCCCCCCCCCCCCc1cc(=O)c2c(O)cc(O)cc2o1`, the outcome was inactive.
Take `c1ccc2c(c1)NC(C1OC3CCCN3C1C1Nc3ccccc3S1)S2` (configuration not stated): the EC50 was > 200 µM and the IC50 came out at 107 µM.
Taken in the same sequence, the figures for `CC(=O)CC(=O)N(CCN(C(=O)CC(C)=O)c1ccccc1)c1ccccc1` were > 178 µM and > 178 µM.
The matching figures for `CC(=O)NCCCCNCCCNC(C)=O`: > 200 µM and > 200 µM.
As for `CCOC(=O)C1=NN(c2ccc(Cl)cc2)C2=CC(C)=NN(C)C(=S)N21`, the EC50 was > 200 µM and the IC50 was > 200 µM.
For the compound `Nc1nc(Nc2ccc(Cl)c(Cl)c2)c(N=O)c(=O)[nH]1`, the EC50 was > 200 µM and the IC50 worked out at 3.72 µM.
Taken in the same sequence, the figures for `CCOC(=O)C(Cc1c(-c2[nH]c3ccccc3c2CC(NC(=O)CNC(C)=O)C(=O)OCC)[nH]c2ccccc12)NC(=O)CNC(C)=O` (configuration not stated) were > 100 µM and 21.9 µM.
With `NC(=O)CNC(=O)c1ccccc1SC(=O)CCCC[n+]1ccccc1`, the EC50 was 1.74 µM and the IC50 is 178 µM.
With `CC1=C(C)CP(=O)(c2ccccc2)C1`, the EC50 was 0.0631 µM and the IC50 was > 200 µM.
For the compound `COC(=O)c1ccccc1CC1Cc2ccc3c(c2C1=O)CCCC3` (configuration not stated), the EC50 is > 200 µM and the IC50 is > 200 µM.
`COc1ccc2c(c1)OC[C@@H]1c3cc(O)c4c(OCc5ccccc5)cccc4c3O[C@H]21`: the EC50 is > 100 µM and the IC50 came to 67.6 µM.
Taken in the same sequence, the figures for `O=C(NNC(=O)c1csc(NC(=S)NC2CCCCC2)n1)c1ccccc1` were > 200 µM and 14.5 µM.
For the compound `COc1cccc(NC(=O)C(C#N)=C(SC)SC)c1`, the EC50 was > 200 µM and the half-inhibitory concentration (IC50) is 7.94 µM.
Consider `Cc1c(CN)c(C)c(CN)c(C)c1CN`, for which the EC50 was > 200 µM and the half-maximal inhibitory concentration (IC50) was 97.7 µM.
In the case of `c1ccc(CSC(SCc2ccccc2)(c2ccccc2)c2ccccc2)cc1`, the EC50 was > 200 µM; the IC50 was 102 µM and > 100 µM.
Take `CC1(C)CC(=O)C2=C(C1)NC(=S)C(C#N)C2c1ccccc1` (configuration not stated): the EC50 was > 85.1 µM and the IC50 is 32.4 µM.
The matching figures for `O=c1c2ccccc2oc2cc3c(c(O)c12)CCCC3`: > 200 µM and > 200 µM.
The matching figures for `CC1(C)CC(=O)C2=C(C1)OC1=C(CC(C)(C)CC1=O)C2c1ccccc1[N+](=O)[O-]` (configuration not stated): > 200 µM and > 200 µM.
Regarding `COC1OC(=O)C(OC)C(OC)C1OC` (configuration not stated), the outcome was inactive.
On the same count and under the same terms, for `CNC(C)C#N` (configuration not stated) the value was “inactive”.
